The values that follow come from the METLIN SMRT retention time set (Domingo-Almenara et al. 2019).

The nature of the data set: gradient 5% acetonitrile 3 min, to 50% in 2 min, to 85% in 15 min, held 3 min, 100 µL/min. Conditions: column: Zorbax Extend-C18 2.1 x 50 mm; eluents: water / acetonitrile, 0.1% formic acid. In a few lines: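 Mixtures of ~100 pure standards were chromatographed on a Zorbax Extend-C18 column (2.1 × 50 mm, 1.8 μm) at 100 μL/min using water and acetonitrile, each with 0.1% formic acid. Detection used a quadrupole time-of-flight mass spectrometer in positive and negative ionization mode, and data collection spanned 3 months. Retention time was obtained from adduct peaks picked computationally and each checked manually.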
`Cc1ccccc1NC(=O)C1CCCN(c2nc3ccccc3nc2C(F)(F)F)C1` (stereo not given) came in with an RP-LC retention time of 1190 s.

Turning to `CCOc1cccc(CN2CC[C@@](C)(O)[C@H](N3CCCC3)C2)c1`, the RP-LC retention time came to 562 s.

Regarding `CCN(CC)C(=O)c1c(C)oc2ccn(Cc3ccc(F)cc3)c(=O)c12`, the RP-LC retention time came out at 787 s.

As to `O=C(CC1CCN(C(=O)Nc2ccc(Br)cc2)CC1)N1CCCCC1`, the RP-LC retention time was found to be 830 s.

The compound `Cc1cc(C)cc(Nc2c(C(=O)N3CCCCC3C)cnc3nc(C)ccc23)c1` (stereo not given) showed an RP-LC retention time of 703 s.

With `CSc1nsc(SCC(=O)Nc2nc(-c3ccccc3)cs2)n1`, the RP-LC retention time is 1070 s.

Compound `CC(C)(C)c1cc(C(=O)Nc2ccccc2)nc2ccnn12` had an RP-LC retention time of 1250 s.

In turn, `O=C(c1ccccc1Br)N1CCN(c2cc(-c3cccs3)[nH]n2)CC1` showed an RP-LC retention time of 761 s.

As to `CC(C)n1cc2cc(C(=O)N(C)CCc3ccncc3)sc2c1`, the RP-LC retention time came to 709 s.

`O=C1CCCc2cc(S(=O)(=O)N3CCC(C(=O)Nc4cccc(F)c4)CC3)ccc2N1` yielded an RP-LC retention time of 770 s.

The compound `Clc1ccc(Nc2nc3ccccc3c3nc(C4CCCCC4)[nH]c23)cc1Cl` returned an RP-LC retention time of 1130 s.

Turning to `COc1cc2c(cc1OC)CN(C(=O)CSc1ncnc3sc(C)c(C)c13)CC2`, the RP-LC retention time came out at 851 s.

`O=C(Nc1ccc(F)cc1)C1CCN(C(=O)c2ncn3c2COC(c2ccc(F)cc2)C3)CC1` (stereo not given) gave an RP-LC retention time of 798 s.

In turn, `Cc1c(Cl)cccc1NC(=O)Nc1cccc(-c2ccc(N3CCOCC3)nn2)c1` came in with an RP-LC retention time of 753 s.

In the case of `CNC(=O)c1nn(C)c2c1C(C)(C)Cc1cnc(Nc3ccc(N4CCN(C)CC4)cc3)nc1-2`, the RP-LC retention time amounted to 656 s.

On to `Cn1c(=O)c(-c2noc(C(=O)N3CCN(c4ccccn4)CC3)n2)nn(-c2ccc(F)cc2)c1=O`, for which the RP-LC retention time worked out at 666 s.

As for `Cc1cccc(CN2C(=O)CN(S(C)(=O)=O)CC2(C)C(=O)NCc2ccccc2)c1` (stereo not given), the RP-LC retention time was 838 s.

Consider `COc1ccccc1C(O)Cn1ccn2nc(-c3ccc(C)c(C)c3)cc2c1=O` (stereo not given), for which the RP-LC retention time turned out to be 982 s.

Compound `COc1ccc(OC)c(NC(=O)N(C)CCc2noc(-c3ccccc3)n2)c1` gave an RP-LC retention time of 918 s.

For the compound `CCN1C(=O)c2cc(S(=O)(=O)Nc3ccccc3)ccc2Oc2cccnc21`, the RP-LC retention time is 959 s.

Consider `CNC(=O)c1cc(C)nc2ccc(C(C)C)cc12`, for which the RP-LC retention time was determined as 596 s.

`COc1ccc(Cl)cc1NC(=O)C1CCN(S(C)(=O)=O)c2ccccc2O1` (stereo not given): the RP-LC retention time amounted to 1030 s.

Consider `Cc1ccccc1-c1cc2c(=O)n(Cc3nc(-c4ccc5c(c4)OCO5)no3)ccn2n1`, for which the RP-LC retention time was found to be 1050 s.

Consider `COc1ccc(C)cc1N(C)C(=O)Cn1ccc2c(=O)n(C)c(=O)n(C)c21`, for which the RP-LC retention time worked out at 714 s.

For `CCCNC(=O)C1CCN(c2ccc(SCC(=O)NCc3ccc(F)cc3)nn2)CC1`, the RP-LC retention time came out at 667 s.

In turn, `Cc1cc(C(N)=O)c2cc(C(C)C)ccc2n1` returned an RP-LC retention time of 591 s.

In turn, `Cc1ccc(-c2cn(CC(=O)N3CCN(c4ccc(C)cc4)CC3)c(=O)o2)cc1` came in with an RP-LC retention time of 975 s.

`Cc1ccc(-c2cc(C(F)(F)F)on2)cc1S(=O)(=O)N1CCC(C)CC1` showed an RP-LC retention time of 1280 s.

As for `Cn1cnc(S(=O)(=O)N2CCC(C(=O)N3CCN(c4cccc(C(F)(F)F)c4)CC3)CC2)c1`, the RP-LC retention time worked out at 823 s.

For the compound `COc1ccc(N2CCN(CCNC(=O)c3ccc(S(=O)(=O)N(C)C)cc3)CC2)cc1`, the RP-LC retention time turned out to be 589 s.

`O=C(CCCc1ccccc1)N1CCN(c2ccc(Nc3cccnc3)nn2)CC1`: the RP-LC retention time turned out to be 575 s.

Take `Cc1ccc(C2NC(=O)N(CC(=O)Nc3ccc4c(c3)OCO4)C3=C2C(=O)OC3)cc1` (stereo not given): the RP-LC retention time was determined as 746 s.

`O=C(Nc1cccc2c1CCCC2)C1CCN(S(=O)(=O)c2ccc3[nH]c(=O)ccc3c2)CC1` had an RP-LC retention time of 808 s.

On to `c1ccc(Nc2c(-c3ccccc3)nc3cnccn23)cc1`, for which the RP-LC retention time turned out to be 826 s.

Compound `CCOc1c(C)cc(S(=O)(=O)NCC2(O)CCOCC2)cc1C` gave an RP-LC retention time of 690 s.

For `COc1ccc(Cl)cc1S(=O)(=O)N1CCCC(C(=O)NCCCOC(C)C)C1` (stereo not given), the RP-LC retention time is 855 s.

The compound `O=C(CSc1nnc2c3cc(-c4ccc(F)cc4)nn3ccn12)Nc1ccc(F)cc1F` had an RP-LC retention time of 891 s.

As to `CC(C)(CO)NC(=O)Cc1ccc(NS(=O)(=O)/C=C/c2ccccc2)cc1`, the RP-LC retention time is 686 s.

`CN(Cc1ccccc1)C(=O)C1CCCN(c2nnc(N3CCCC3=O)s2)C1` (stereo not given): the RP-LC retention time amounted to 718 s.

The compound `CN1c2cc(F)ccc2C(=O)NC12CCN(C(=O)NCCc1ccccc1)CC2` displayed an RP-LC retention time of 761 s.

Compound `CCOc1ccc(-c2csc(NC(=O)CS(=O)(=O)c3ccc(Cl)cc3)n2)cc1` displayed an RP-LC retention time of 1070 s.

Compound `Fc1cccc(-c2noc(-c3nc(-c4ccncc4)no3)n2)c1` gave an RP-LC retention time of 951 s.

Compound `O=C(Cn1nc(C(=O)N2CCCC2)c2ccccc21)N1CCN(c2cccc(Cl)c2)CC1` showed an RP-LC retention time of 942 s.

In turn, `CC(=O)Nc1cccc(N2CC(C(=O)Nc3ccc(C)cc3Br)CC2=O)c1` (stereo not given) returned an RP-LC retention time of 720 s.

Regarding `Cc1cc2nn(CC(=O)N3CCC(C)CC3)c(=O)n2c(Nc2ccc(F)cc2)n1`, the RP-LC retention time was determined as 990 s.

The compound `Cc1nc(N2CCOCC2)c2c(C(=O)Nc3ccc(Br)cc3C)c(C)oc2n1` gave an RP-LC retention time of 909 s.

On to `Cc1ccc(S(=O)(=O)CCc2noc(-c3sc(C)nc3C)n2)cc1`, for which the RP-LC retention time amounted to 818 s.

Compound `Cc1cc(C)cc(N2CCC(N)C2=O)c1` (stereo not given) returned an RP-LC retention time of 605 s.

The compound `CCCC(=O)Nc1nnc(SCc2nnc(-c3ccccc3)o2)s1` had an RP-LC retention time of 779 s.

Regarding `CCSc1nnc(NC(=O)Cc2cc(-c3ccc4c(c3)CC(C)O4)on2)s1` (stereo not given), the RP-LC retention time was 895 s.

With `O=C(NCC1CCCO1)c1cnn2c(-c3ccc4c(c3)OCO4)ccnc12` (stereo not given), the RP-LC retention time worked out at 780 s.

Take `Cn1c(=O)c(=O)n(C)c2cc(N3CCCCC3)c(NC(=O)c3ccco3)cc21`: the RP-LC retention time came to 840 s.

In the case of `O=C(O)c1ccc2c(c1)N(S(=O)(=O)c1ccccc1F)CC2`, the RP-LC retention time was 789 s.

As to `CCCCN(C)C(=O)C1CCCCc2nnc(C(C)C)n21` (stereo not given), the RP-LC retention time turned out to be 666 s.

Regarding `CCCn1cc(CCNS(=O)(=O)c2ccccc2C(F)(F)F)c2cccnc21`, the RP-LC retention time was 904 s.

Take `O=C(CN1CCC2(CC1)N=C(c1ccccc1)C(=O)N2)Nc1ccc(Br)cc1F`: the RP-LC retention time stood at 685 s.

In turn, `CCCNC(=O)N1CCCCCC1CN1CCC(OC)CC1` (stereo not given) showed an RP-LC retention time of 604 s.

As for `O=C(NCc1ccccc1C(F)(F)F)c1ccnc(N2CCCCC2)n1`, the RP-LC retention time was determined as 1190 s.

In the case of `Cc1cc(C)n2c(Nc3c(C)cccc3C)c(-c3ccc(Cl)cc3)nc2n1`, the RP-LC retention time amounted to 815 s.

As for `Cc1ccc(C)c(NC(=O)Cn2c(=O)nc(N3CCC(C)CC3)c3ccccc32)c1`, the RP-LC retention time was determined as 880 s.

`Nc1c(C(=O)NCC2CC2)nsc1C(=O)O` returned an RP-LC retention time of 770 s.

Take `NS(=O)(=O)c1ccc(CNC(=O)C2CN(C(=O)c3ccc(F)c(F)c3)C2)cc1`: the RP-LC retention time is 631 s.

In the case of `Cc1cc(-c2nnc(C3CCC3)o2)c(C)n1CC(=O)Nc1cccc(Cl)c1`, the RP-LC retention time was 960 s.

As to `O=C(Nc1ccc2ncnc(N3CCCC3)c2c1)c1cncc(Br)c1`, the RP-LC retention time stood at 639 s.

The compound `Fc1ccc(-c2nnc(Cc3nc(-c4ccc(C(F)(F)F)cc4)no3)o2)cc1` showed an RP-LC retention time of 1100 s.

`CCN1C(=O)C2CC3(CCN(C(=O)CC4CCCC4)CC3)CN2C1=O` (stereo not given) registered an RP-LC retention time of 741 s.

For the compound `COCC(=O)NC1CCC12CCN(C(C)=O)CC2` (stereo not given), the RP-LC retention time was found to be 589 s.

As to `Cc1c(Cl)cccc1NC(=O)C1CCN(c2nc(C3CCC3)nc3csc(C)c23)CC1`, the RP-LC retention time stood at 1000 s.

Regarding `Cc1nc(-c2csc(S(=O)(=O)N3CCCC(C(=O)Nc4ccc(F)cc4Cl)C3)c2)no1` (stereo not given), the RP-LC retention time was determined as 1010 s.

Regarding `COc1ccc(C(=O)n2nc(C)cc2C)cc1OC`, the RP-LC retention time was determined as 788 s.

With `Cc1ccc(-c2cc3c4nnc(SCC(=O)NCCC(C)C)n4ccn3n2)cc1C`, the RP-LC retention time was determined as 942 s.

With `CCc1nc2ccccc2c(=O)n1Cc1noc(-c2ccc(OC)cc2OC)n1`, the RP-LC retention time amounted to 918 s.

With `COc1ccc2[nH]c(C(=O)Nc3ccccc3)cc2c1`, the RP-LC retention time is 880 s.

In turn, `CC(C)N1CCn2c(nc3cc(C(=O)NCc4cccc(Cl)c4)ccc32)C1=O` registered an RP-LC retention time of 733 s.

As for `CCN1CCN(S(=O)(=O)c2ccc(Cl)c(-c3nnc(-c4ccccc4)o3)c2)CC1`, the RP-LC retention time was 702 s.

Compound `CCN(CC)CCNc1ncnc2onc(-c3cc(F)cc(F)c3)c12` registered an RP-LC retention time of 651 s.

The compound `O=C(Cn1c(=O)cc(-c2nc(C3CC3)no2)c2ccccc21)NCCc1ccc(Cl)cc1` came in with an RP-LC retention time of 1000 s.

Consider `CCN1CCCn2nc(C3CCN(S(=O)(=O)c4ccc(F)cc4)CC3)cc2C1=O`, for which the RP-LC retention time stood at 761 s.

For the compound `CN1C(=O)C(CC(=O)N2CCCC2)Sc2ncccc21` (stereo not given), the RP-LC retention time was 626 s.

`Cc1nc2cc(-c3noc(/C=C/c4ccco4)n3)ccc2o1` gave an RP-LC retention time of 1010 s.
